Experimental data taken from paper PMC4174574 (Molecular cancer therapeutics, 2013).
Blank lines part the entries; values can stand above or below the compound they belong to.

Columns and labels:
Mcl-1 [1] = target: T1, Mcl-1 (Homo sapiens, UniProt Q07820); conditions: cited from earlier work
cellular Mcl-1 = cellular Mcl-1 (Homo sapiens, UniProt Q07820); test: Biotin-labeled Noxa BH3 peptide streptavidin pull-down from 2LMP cell lysate; format: binding
A1/Bfl-1 = target: T2, A1/Bfl-1 (Homo sapiens, UniProt Q16548); test: FP-based competitive binding assay using fluorescent labeled Bid BH3 peptide; conditions: for Ki: read-out: Ki ± SD, A1/Bfl-1, competitive FP assay, Bid BH3 peptide
T2 sequence (Q16548 1-175): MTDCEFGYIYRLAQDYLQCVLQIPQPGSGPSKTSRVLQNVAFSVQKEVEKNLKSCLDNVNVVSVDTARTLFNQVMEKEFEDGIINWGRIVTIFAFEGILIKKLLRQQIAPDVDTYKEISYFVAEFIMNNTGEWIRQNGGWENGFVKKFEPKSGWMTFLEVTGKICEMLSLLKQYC

Bcl-w = target: T3, Bcl-w (Homo sapiens, UniProt Q92843); test: as above; conditions: for Ki: read-out: Ki ± SD, Bcl-w, competitive FP assay, Bid BH3 peptide
T3 sequence (Q92843 1-193): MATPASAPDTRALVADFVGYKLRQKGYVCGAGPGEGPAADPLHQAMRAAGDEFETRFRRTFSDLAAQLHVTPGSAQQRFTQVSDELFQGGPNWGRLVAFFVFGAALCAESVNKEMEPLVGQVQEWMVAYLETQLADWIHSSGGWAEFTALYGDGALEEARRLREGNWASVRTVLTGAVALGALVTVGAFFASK

Panc-1 cells [2] = conditions: Panc-1, 24 h, anti-Bax 6A7
BxPC-3 cells [3] = test: Cell growth inhibition; conditions: BxPC-3 transfected with control siRNA, 3.5 μM, 72 h
Panc-1 cells [4] = conditions: Panc-1, 24 h treatment
AsPC-1 = conditions: read-out: IC50 cell growth inhibition, AsPC-1; 4 days treatment
BxPC-3 cells [5] = conditions: BxPC-3, 24 h, 3 and 10 μM, densitometry
AsPC-1 cells = conditions: AsPC-1, highest tested concentration 20 μM
SCID mice = conditions: mouse, in vivo
Mcl-1 [6] = target: T1, Mcl-1; test: FP-based competitive binding assay using fluorescent labeled Bid BH3 peptide
Bcl-xL [7] = target: T4, Bcl-xL (Homo sapiens, UniProt Q07817); test: as above
Capan-2 = conditions: read-out: IC50 cell growth inhibition, Capan-2; 4 days treatment
[8] = target: Mcl-1/Bax and Mcl-1/Bak in BxPC-3 cells (Homo sapiens, UniProt Q07820); conditions: BxPC-3, 4 μM, 24 h
Mcl-1 [9] = target: T1, Mcl-1; format: binding
BxPC-3 cells [10] = test: Induction of apoptosis; conditions: BxPC-3 transfected with control siRNA, 3.5 μM, 72 h
Bcl-xL [11] = target: T4, Bcl-xL; conditions: solution competitive SPR, immobilized Bid peptide
Bcl-2 [12] = target: T5, Bcl-2 (Homo sapiens, UniProt P10415); conditions: solution competitive SPR, immobilized Bid peptide
BxPC-3 cells [13] = conditions: BxPC-3, 24 h, anti-Bax 6A7
[14] = Metabolic stability in pooled mice liver microsomes; format: in vitro ADME
[15] = test system: Bax/Bak-deficient (DKO) MEFs; conditions: 10 μM, 24 h
BxPC-3 xenograft = BxPC-3 xenograft efficacy in SCID mice; format: in vivo; conditions: 60 mg/kg i.v.; for Tumor growth inhibition in comparison with controls: 5 days a week for two weeks
Panc-1 cells [16] = test: Induction of apoptosis, Annexin V/PI double staining flow cytometry; format: cell-based, human
Panc-1 = conditions: read-out: IC50 cell growth inhibition, Panc-1; 4 days treatment
Bcl-2 [17] = target: T5, Bcl-2; test: FP-based competitive binding assay using fluorescent labeled Bid BH3 peptide
BxPC-3 = conditions: read-out: IC50 cell growth inhibition, BxPC-3; 4 days treatment
[18] = test system: wild type (WT) murine embryonic fibroblasts (MEF); conditions: 10 μM, 24 h
MiaPaCa-2 = conditions: read-out: IC50 cell growth inhibition, MiaPaCa-2; 4 days treatment

T5 sequence (P10415 whole entry): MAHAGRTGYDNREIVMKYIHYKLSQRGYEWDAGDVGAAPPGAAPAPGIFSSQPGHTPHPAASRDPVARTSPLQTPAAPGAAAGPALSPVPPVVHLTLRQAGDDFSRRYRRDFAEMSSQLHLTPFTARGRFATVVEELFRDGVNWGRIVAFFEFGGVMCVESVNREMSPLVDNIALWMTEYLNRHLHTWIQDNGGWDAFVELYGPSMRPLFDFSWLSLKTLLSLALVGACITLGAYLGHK
T4 sequence (Q07817 whole entry): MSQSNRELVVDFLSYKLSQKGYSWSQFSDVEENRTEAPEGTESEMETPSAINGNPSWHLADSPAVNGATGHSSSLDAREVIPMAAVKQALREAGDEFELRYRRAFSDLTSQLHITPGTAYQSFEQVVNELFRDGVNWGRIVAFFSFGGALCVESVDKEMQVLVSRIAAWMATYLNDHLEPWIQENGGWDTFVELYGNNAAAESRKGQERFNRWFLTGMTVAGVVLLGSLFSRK
T1 sequence (Q07820 whole entry): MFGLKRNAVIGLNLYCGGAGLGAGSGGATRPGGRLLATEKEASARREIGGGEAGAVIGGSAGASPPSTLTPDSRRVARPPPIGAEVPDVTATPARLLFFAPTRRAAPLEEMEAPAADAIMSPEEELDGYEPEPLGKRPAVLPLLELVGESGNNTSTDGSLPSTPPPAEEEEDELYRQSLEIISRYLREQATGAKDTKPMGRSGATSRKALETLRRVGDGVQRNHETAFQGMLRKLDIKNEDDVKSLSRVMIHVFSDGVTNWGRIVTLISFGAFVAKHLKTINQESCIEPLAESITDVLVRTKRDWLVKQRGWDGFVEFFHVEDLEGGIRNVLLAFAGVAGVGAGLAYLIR
Sequence of cellular Mcl-1 (Q07820 whole entry): as above
Sequence of Mcl-1/Bax and Mcl-1/Bak in BxPC-3 cells (Q07820 whole entry): as above

Compound: CN(C)CC[C@H](CSc1ccccc1)Nc1ccc(S(=O)(=O)NC(=O)c2ccc(N3CCN(Cc4ccccc4-c4ccc(Cl)cc4)CC3)cc2)cc1[N+](=O)[O-] [ABT-737]
Binding to Mcl-1 (Mcl-1 [1]): fails to bind

Ki (A1/Bfl-1): 6.14 ± 1 µM | Ki (Bcl-w): 37.5 ± 7.96 µM
Compound: O=C(O)CSc1cc(NS(=O)(=O)c2cccs2)c2ccccc2c1O [UMI-59]
Disruption of BL-Noxa / cellular Mcl-1 interaction (cellular Mcl-1): effectively disrupt the interactions between BL-Noxa and cellular Mcl-1 in a dose dependent manner

Compound: O=C(O)CSc1cc(NS(=O)(=O)c2ccc(Br)cc2)c2ccccc2c1O [UMI-77]
Concentration from which activated Bax is substantially increased (Panc-1 cells [2]): ≥ 5 µM | Cell growth inhibition (BxPC-3 cells [3]): 50% | Concentration from which cytochrome c and Smac are released from mitochondria (Panc-1 cells [4]): ≥ 10 µM | IC50 (AsPC-1): 16.1 µM | Cleaved caspase-3 versus DMSO control (BxPC-3 cells [5]): statistically significant cleaved caspase-3 versus DMSO control | Induction of early apoptosis (AsPC-1 cells): 8% | Histopathology (H&E) of kidney, liver and pancreas (SCID mice): did not cause damage | Concentration from which BL-Noxa / cellular Mcl-1 interaction is blocked (cellular Mcl-1): ≥ 10 µM | Disruption of BL-Noxa / cellular Mcl-1 interaction (cellular Mcl-1): effectively disrupt the interactions between BL-Noxa and cellular Mcl-1 in a dose dependent manner | Potency for binding to Mcl-1 relative to 1 (UMI-59) (Mcl-1 [6]; FP Ki ratio): three times higher potency | Ki (Mcl-1 [6]; read-out: Ki ± SD, Mcl-1, competitive FP assay, Bid BH3 peptide): 0.49 ± 0.06 µM | Fold reduced binding to Bcl-xL vs Mcl-1 (Bcl-xL [7]; FP Ki ratio): more than 50 fold | Ki (Bcl-xL [7]; read-out: Ki ± SD, Bcl-xL, competitive FP assay, Bid BH3 peptide): 33 ± 4.33 µM | IC50 (Capan-2): 5.5 µM | Endogenous protein-protein interactions of Bax and Bak with Mcl-1 [8]: inhibition of the endogenous protein-protein interactions of Bax and Bak with Mcl-1 | Fold improved binding affinity to Mcl-1 in comparison with UMI-59 (SPR) (Mcl-1 [9]; SPR IC50 ratio): 4 fold | IC50 (Mcl-1 [9]; read-out: IC50, Mcl-1 (SPR), solution competitive SPR, immobilized Bid peptide): 0.31 µM | Fold lower affinity to A1/Bfl-1 than to Mcl-1 (A1/Bfl-1; FP Ki ratio): 11 fold | Ki (A1/Bfl-1): 5.33 ± 1 µM | Induction of apoptosis (BxPC-3 cells [10]): 7 fold | Fold decreased binding to Bcl-xL vs Mcl-1 (SPR) (Bcl-xL [11]): more than 30 fold | Fold decreased binding to Bcl-w vs Mcl-1 (Bcl-w; FP Ki ratio): 17 fold | Ki (Bcl-w): 8.19 ± 1.91 µM | Fold decreased binding to Bcl-2 vs Mcl-1 (SPR) (Bcl-2 [12]): more than 30 fold | Concentration from which activated Bax is substantially increased (BxPC-3 cells [13]): ≥ 5 µM | Microsomal half-life (T1/2) [14]: 45 min | Apoptotic cells in MEF DKO cells [15]: 16% | Positive apoptotic cells of tumor sections (TUNEL) vs control group (BxPC-3 xenograft): significantly increased | Survivin in tumor tissue lysates (western blot) (BxPC-3 xenograft): significant decrease of survivin | Tumor growth inhibition in comparison with controls (BxPC-3 xenograft; day 19 (p < 0.0001)): 65% | Tumor growth inhibition in comparison with controls (BxPC-3 xenograft; day 22 (p < 0.003)): 56% | Early apoptotic cells (Panc-1 cells [16]; Panc-1, 5 μM, 24 hours): 15% | Early apoptotic cells (Panc-1 cells [16]; Panc-1, 5 μM, 48 hours): 21% | Early apoptotic cells (Panc-1 cells [16]; Panc-1, 10 μM, 24 hours): 21% | Early apoptotic cells (Panc-1 cells [16]; Panc-1, 10 μM, 48 hours): 49% | IC50 (Panc-1): 4.4 µM | Fold reduced binding to Bcl-2 vs Mcl-1 (Bcl-2 [17]; FP Ki ratio): more than 50 fold | Ki (Bcl-2 [17]; read-out: Ki ± SD, Bcl-2, competitive FP assay, Bid BH3 peptide): 23.8 ± 1.81 µM | IC50 (BxPC-3): 3.4 µM | Apoptosis in MEF WT cells [18]: more than 60% | IC50 (MiaPaCa-2): 12.5 µM
